From ChEMBL document CHEMBL1138643, “Haloperidol: towards further understanding of the structural contributions of its pharmacophoric elements at D2-like receptors” (Bioorg Med Chem Lett, 2004) come the findings set out here.

A short description of test [1]: Binding affinity for dopamine D3 receptor.
Another test deals with T1, D(4) dopamine receptor (Homo sapiens, UniProt P21917).
T1 sequence (P21917 whole entry): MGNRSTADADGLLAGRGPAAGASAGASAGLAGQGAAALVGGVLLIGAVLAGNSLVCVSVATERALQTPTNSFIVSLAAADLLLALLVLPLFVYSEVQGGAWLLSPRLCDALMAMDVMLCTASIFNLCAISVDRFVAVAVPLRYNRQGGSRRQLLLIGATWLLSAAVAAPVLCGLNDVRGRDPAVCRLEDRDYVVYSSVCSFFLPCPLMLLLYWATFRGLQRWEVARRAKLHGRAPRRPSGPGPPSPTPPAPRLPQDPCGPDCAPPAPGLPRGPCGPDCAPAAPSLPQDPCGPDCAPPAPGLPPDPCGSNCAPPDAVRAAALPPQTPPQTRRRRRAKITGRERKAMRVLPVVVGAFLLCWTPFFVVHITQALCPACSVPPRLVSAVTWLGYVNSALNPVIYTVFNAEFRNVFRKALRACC
Description: Binding affinity for dopamine D4 receptor.

The nature of test [2]: Binding affinity for dopamine D2 receptor to that of dopamine D4 receptor.
The target in the next test is D(2) dopamine receptor (Homo sapiens, UniProt P14416).
Chain of D(2) dopamine receptor (P14416 whole entry): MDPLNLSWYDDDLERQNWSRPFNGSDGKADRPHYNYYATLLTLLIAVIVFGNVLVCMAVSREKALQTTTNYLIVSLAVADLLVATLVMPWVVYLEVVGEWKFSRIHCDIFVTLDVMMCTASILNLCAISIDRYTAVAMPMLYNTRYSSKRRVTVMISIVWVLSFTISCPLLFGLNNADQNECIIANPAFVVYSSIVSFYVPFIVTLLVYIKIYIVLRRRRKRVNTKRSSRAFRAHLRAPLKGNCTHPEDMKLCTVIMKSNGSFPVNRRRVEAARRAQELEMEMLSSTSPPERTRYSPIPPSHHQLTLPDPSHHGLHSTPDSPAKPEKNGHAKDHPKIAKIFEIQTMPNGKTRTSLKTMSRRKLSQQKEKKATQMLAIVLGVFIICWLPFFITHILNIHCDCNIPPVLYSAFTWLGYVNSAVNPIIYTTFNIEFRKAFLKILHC

Broadly, the Ki is a measure of affinity in units of concentration, obtained from inhibition or displacement. Read a low Ki as a stronger hold on the target. As for `O=C(CN1C2CCC1CC(O)(c1ccc(Cl)cc1)C2)c1ccc(F)cc1` (stereo not drawn), the Ki in test [1] was > 10000 nM.

Molecule `O=C(CCCN1CCC(c2ccc(Cl)cc2)CC1)c1ccc(F)cc1` had a Ki in test [1] of 46 nM.

As to `O=C(CCCN1C2CCC1CC(O)(c1ccccc1)C2)c1ccc(F)cc1` (stereo not drawn), the values for the Ki (at D(4) dopamine receptor; in test [1]) were 19.1 nM and 3.2 nM, respectively.

Turning to `O=C(CCCN1C2CCC1CC(c1ccccc1)C2)c1ccc(F)cc1` (stereo not drawn), the Ratio in test [2] stood at 0.7. Besides, the values for the Ki (on D(4) dopamine receptor; in test [1]) were 177 nM and 51.4 nM, respectively.

In the case of `O=C(CCCN1CCN(c2ccc(Cl)cc2)CC1)c1ccc(F)cc1`, the Ki at D(4) dopamine receptor amounted to 17.5 nM.

Turning to `O=C(CCCN1C2CCC1CC(c1ccc(Cl)cc1)C2)c1ccc(F)cc1` (stereo not drawn), the values for the Ki (on D(2) dopamine receptor; at D(4) dopamine receptor; in test [1]) were 190 nM, 345 nM and 222 nM, respectively. Further, in test [2], the Ratio was found to be 0.6.

On to `O=C(CCCN1C2CCC1CC(O)(c1ccc(Cl)cc1)C2)c1ccc(F)cc1` (stereo not drawn), for which the Ratio in test [2] came to 0.03.
